Results from ChEMBL document CHEMBL3301562, “MMV Box screening against Plasmodium falciparum protein kinases and aminoacyl tRNA synthetases”.

Assays:
Type in all cases: functional
[1] = target: T1, Cdk-related protein kinase 6 (Plasmodium falciparum, UniProt O77239); assay: Final concentrations were 1.5 uM ATP, 5 mM MnCl2, and 15 ug/ml PK6 in a buffer of 100 mM Tris-HCl (pH 7.5). 50 ug/mL MBP was provided as the substrate; 10 uM staurosporine was used as a control inhibitor. Incubation time was 3 hours and 40 minutes.The catalytic activity of each kinase was considered proportional to ATP consumed, as determined from measurements of residual [ATP] with the luciferase-based reagent Kinase-Glo (Promega) following incubation. Luminescence (proportional to residual [ATP]) was measured on the plate readers FLx800 (BioTek Instruments, Winooski, VT, USA) and MicroBeta2.
T1 sequence (O77239 whole entry): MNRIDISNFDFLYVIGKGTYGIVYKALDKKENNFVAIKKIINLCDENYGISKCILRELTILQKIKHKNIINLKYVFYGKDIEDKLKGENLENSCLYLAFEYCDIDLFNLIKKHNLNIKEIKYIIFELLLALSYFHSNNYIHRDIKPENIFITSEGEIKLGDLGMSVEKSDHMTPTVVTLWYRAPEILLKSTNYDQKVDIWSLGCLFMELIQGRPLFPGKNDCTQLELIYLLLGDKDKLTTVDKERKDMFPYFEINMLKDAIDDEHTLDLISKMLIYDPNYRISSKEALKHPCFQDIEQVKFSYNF

[2] = target: Calcium-dependent protein kinase 1 (Plasmodium falciparum, UniProt P62344); assay: MMV: CDPK1 Protein kinase inhibition assay using recombinant PfCDPK1, syntide 2 peptide substrate, ATP and KinaseGlo to measure % inhibition at 1 uM MMV box compound.
Proline--tRNA ligase = target: T2, Proline--tRNA ligase (Plasmodium falciparum (isolate 3D7), UniProt Q8I5R7); assay: MMV: ProRS recombinant Plasmodium falciparum Prolyl-tRNA-synthetase, assay with yeast tRNA, ATP, and proline and 3 uM MMV malaria box compound, assay read out with kinase glo as % inhibition.
T2 sequence (Q8I5R7 whole entry): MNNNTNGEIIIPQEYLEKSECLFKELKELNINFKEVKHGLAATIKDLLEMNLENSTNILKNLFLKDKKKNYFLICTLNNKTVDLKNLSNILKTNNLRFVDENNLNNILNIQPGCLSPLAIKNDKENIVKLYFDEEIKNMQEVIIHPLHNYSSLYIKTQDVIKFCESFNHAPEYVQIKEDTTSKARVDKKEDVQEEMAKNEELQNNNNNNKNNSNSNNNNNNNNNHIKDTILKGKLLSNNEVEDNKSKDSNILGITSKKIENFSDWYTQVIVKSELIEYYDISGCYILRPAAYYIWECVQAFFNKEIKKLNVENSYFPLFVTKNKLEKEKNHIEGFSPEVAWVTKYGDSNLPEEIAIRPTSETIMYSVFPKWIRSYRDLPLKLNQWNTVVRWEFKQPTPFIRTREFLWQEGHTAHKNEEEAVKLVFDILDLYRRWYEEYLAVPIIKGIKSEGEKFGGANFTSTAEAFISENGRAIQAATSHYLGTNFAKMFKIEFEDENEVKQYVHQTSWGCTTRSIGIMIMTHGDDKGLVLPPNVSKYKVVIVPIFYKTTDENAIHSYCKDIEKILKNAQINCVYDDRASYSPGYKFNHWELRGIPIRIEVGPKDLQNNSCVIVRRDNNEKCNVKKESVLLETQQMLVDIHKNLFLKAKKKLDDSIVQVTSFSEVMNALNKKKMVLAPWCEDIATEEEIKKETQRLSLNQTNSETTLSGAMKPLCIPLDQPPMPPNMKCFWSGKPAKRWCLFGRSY

Lysine--tRNA ligase = Lysine--tRNA ligase (Plasmodium falciparum (isolate 3D7), UniProt Q8IDJ8); assay: MMV: KRS recombinant Plasmodium falciparum Lysyl-tRNA-synthetase, assay with yeast tRNA, ATP, and lysine and 3 uM MMV malaria box compound, assay read out with kinase glo as % inhibition.
[3] = target: T3, Putative uncharacterized protein pk7 (Plasmodium falciparum, UniProt O96214); assay: Final concentrations were 1 uM ATP, 2 mM DTT, 20 mM MgCl2, 2 mM MnCl2, 0.01% BSA, and 6 ug/ml PK7, in a buffer of 20 mM Tris-HCl (pH 7.5). The enzyme itself was the only substrate present (since autophosphorylation occurs); 100 uM 1NA-PP1 was used as a control inhibitor. Incubation time was 3 hours.
T3 sequence (O96214 whole entry): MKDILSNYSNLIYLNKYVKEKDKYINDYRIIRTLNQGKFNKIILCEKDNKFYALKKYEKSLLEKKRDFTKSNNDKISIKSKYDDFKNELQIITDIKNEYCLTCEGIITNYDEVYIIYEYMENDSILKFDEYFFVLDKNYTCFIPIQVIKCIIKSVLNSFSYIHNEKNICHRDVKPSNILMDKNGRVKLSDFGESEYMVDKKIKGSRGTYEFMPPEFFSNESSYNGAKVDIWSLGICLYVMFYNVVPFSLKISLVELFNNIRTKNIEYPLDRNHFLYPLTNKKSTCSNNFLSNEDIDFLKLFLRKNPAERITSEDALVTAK

[4] = target: T4, Calcium-dependent protein kinase 4 (Plasmodium falciparum (isolate 3D7), UniProt Q8IBS5); assay: MMV: CDPK4 Protein kinase inhibition assay using recombinant PfCDPK4, syntide2 peptide substrate, ATP and KinaseGlo to measure % inhibition at 1 uM MMV box compound.
T4 sequence (Q8IBS5 whole entry): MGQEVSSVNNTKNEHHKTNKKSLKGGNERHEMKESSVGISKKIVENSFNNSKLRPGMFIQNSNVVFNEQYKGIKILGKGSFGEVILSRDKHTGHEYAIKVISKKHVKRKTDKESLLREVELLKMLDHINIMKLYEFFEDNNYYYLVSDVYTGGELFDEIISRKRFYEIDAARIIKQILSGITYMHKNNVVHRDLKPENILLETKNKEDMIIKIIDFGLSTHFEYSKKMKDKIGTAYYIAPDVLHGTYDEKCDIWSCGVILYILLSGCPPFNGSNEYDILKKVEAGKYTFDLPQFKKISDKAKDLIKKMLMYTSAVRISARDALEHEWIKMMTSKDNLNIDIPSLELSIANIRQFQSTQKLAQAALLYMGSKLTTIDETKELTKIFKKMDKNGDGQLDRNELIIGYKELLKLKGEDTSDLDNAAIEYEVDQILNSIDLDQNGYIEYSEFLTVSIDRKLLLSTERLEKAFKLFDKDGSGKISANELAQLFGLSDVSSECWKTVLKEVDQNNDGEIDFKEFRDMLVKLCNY

[5] = target: T5, Mitogen-activated protein kinase (Plasmodium falciparum, UniProt Q25917); assay: Final concentrations were 1 uM ATP, 0.5 mM DTT, 1 mM MgCl2, 0.5 mg/mL BSA, and 10 ug/ml MAP2 in a buffer of 50 mM HEPES (pH 7.0). 0.5 mg/mL histone III-S served as the substrate (13); 100 uM AMP-PNP, an ATP analog, was used as a control inhibitor. Incubation time was 4 hours.
T5 sequence (Q25917 whole entry): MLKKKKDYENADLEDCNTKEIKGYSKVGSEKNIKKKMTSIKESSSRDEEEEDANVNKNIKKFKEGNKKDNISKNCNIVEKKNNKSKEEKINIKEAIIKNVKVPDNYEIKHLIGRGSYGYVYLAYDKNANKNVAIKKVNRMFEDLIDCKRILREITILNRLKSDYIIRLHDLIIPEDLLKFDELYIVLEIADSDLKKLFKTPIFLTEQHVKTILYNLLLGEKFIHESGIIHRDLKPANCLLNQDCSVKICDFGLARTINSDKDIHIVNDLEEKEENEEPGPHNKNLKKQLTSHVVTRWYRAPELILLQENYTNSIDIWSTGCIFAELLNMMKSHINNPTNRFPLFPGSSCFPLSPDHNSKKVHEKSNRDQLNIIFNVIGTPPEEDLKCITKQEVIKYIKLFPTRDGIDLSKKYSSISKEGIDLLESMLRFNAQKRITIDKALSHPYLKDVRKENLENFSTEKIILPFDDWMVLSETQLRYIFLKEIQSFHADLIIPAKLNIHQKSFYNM

Lysine--tRNA ligase, sequence (Q8IDJ8 whole entry): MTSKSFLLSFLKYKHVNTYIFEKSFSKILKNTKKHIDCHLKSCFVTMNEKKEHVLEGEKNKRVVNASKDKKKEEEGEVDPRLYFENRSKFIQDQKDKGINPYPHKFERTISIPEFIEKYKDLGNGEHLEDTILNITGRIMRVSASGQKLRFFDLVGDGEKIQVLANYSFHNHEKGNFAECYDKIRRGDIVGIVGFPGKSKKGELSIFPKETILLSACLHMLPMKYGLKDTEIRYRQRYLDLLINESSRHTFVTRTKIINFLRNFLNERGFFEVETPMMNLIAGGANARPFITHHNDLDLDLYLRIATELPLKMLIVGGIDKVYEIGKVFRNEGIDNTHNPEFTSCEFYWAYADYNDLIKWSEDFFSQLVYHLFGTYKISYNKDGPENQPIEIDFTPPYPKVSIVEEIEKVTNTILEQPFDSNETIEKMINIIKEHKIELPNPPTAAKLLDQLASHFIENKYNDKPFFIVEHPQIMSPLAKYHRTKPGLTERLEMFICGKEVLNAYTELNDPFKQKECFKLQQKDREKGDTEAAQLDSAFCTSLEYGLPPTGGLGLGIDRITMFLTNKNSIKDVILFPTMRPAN
Calcium-dependent protein kinase 1, sequence (P62344 whole entry): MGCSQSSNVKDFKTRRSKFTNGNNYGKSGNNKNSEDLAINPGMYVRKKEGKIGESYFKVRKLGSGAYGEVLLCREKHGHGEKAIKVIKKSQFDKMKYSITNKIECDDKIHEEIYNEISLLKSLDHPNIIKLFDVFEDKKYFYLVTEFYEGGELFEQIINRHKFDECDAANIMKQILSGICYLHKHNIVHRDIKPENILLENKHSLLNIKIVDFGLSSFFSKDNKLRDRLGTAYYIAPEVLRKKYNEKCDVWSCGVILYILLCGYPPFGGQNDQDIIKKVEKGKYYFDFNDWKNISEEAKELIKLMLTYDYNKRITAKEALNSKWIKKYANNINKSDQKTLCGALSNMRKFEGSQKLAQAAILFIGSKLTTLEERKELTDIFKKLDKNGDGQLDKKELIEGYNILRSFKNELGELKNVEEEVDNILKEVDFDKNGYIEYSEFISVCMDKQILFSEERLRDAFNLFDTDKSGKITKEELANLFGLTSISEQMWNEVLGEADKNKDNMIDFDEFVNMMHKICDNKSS

CN1CCN(c2ccc(Nc3c4ccccc4nc4ccccc34)cc2)CC1
IC50 [1]: > 1000 nM | IC50 [2]: > 1000 nM | IC50 (Proline--tRNA ligase): > 2500 nM | IC50 (Lysine--tRNA ligase): > 2500 nM | IC50 [3]: > 1000 nM | IC50 [4]: > 1000 nM | IC50 [5]: > 1000 nM

CCN(CC)CCNc1ncnc2c1[nH]c1ccc(Cl)cc12
IC50 [1]: > 1000 nM | IC50 [2]: > 1000 nM | IC50 (Proline--tRNA ligase): > 2500 nM | IC50 (Lysine--tRNA ligase): > 2500 nM | IC50 [3]: > 1000 nM | IC50 [4]: > 1000 nM | IC50 [5]: > 1000 nM

CCN(CC)CCNc1ccnc2cc(Cl)ccc12
IC50 [1]: > 1000 nM | IC50 [2]: > 1000 nM | IC50 (Proline--tRNA ligase): > 2500 nM | IC50 (Lysine--tRNA ligase): > 2500 nM | IC50 [3]: > 1000 nM | IC50 [4]: > 1000 nM | IC50 [5]: > 1000 nM

CCC(c1ccccc1)c1nn2c(-c3cccs3)nnc2s1 (stereo not given)
IC50 [1]: > 1000 nM | IC50 [2]: > 1000 nM | IC50 (Proline--tRNA ligase): > 2500 nM | IC50 (Lysine--tRNA ligase): > 2500 nM | IC50 [3]: > 1000 nM | IC50 [4]: > 1000 nM | IC50 [5]: > 1000 nM

CC1CN(C(=O)c2sc3ccccc3c2Cl)CC(C)O1 (stereo not given)
IC50 [1]: > 1000 nM | IC50 [2]: > 1000 nM | IC50 (Proline--tRNA ligase): > 2500 nM | IC50 (Lysine--tRNA ligase): > 2500 nM | IC50 [3]: > 1000 nM | IC50 [4]: > 1000 nM | IC50 [5]: > 1000 nM

CN(C)c1ccc(C=Cc2nc(=O)c3ccccc3o2)cc1
IC50 [1]: > 1000 nM | IC50 [2]: > 1000 nM | IC50 (Proline--tRNA ligase): > 2500 nM | IC50 (Lysine--tRNA ligase): > 2500 nM | IC50 [3]: > 1000 nM | IC50 [4]: > 1000 nM | IC50 [5]: > 1000 nM

OC(CNC1CCCCC1)Cn1c2ccccc2c2ccccc21 (stereo not given)
IC50 [1]: > 1000 nM | IC50 [2]: > 1000 nM | IC50 (Proline--tRNA ligase): > 2500 nM | IC50 (Lysine--tRNA ligase): > 2500 nM | IC50 [3]: > 1000 nM | IC50 [4]: > 1000 nM | IC50 [5]: > 1000 nM

CCCN(CCC)CC(O)COc1ccccc1C(=O)Nc1ccccc1 (stereo not given)
IC50 [1]: > 1000 nM | IC50 [2]: > 1000 nM | IC50 (Proline--tRNA ligase): > 2500 nM | IC50 (Lysine--tRNA ligase): > 2500 nM | IC50 [3]: > 1000 nM | IC50 [4]: > 1000 nM | IC50 [5]: > 1000 nM

C=CC12CCN(CC1)C(C(O)c1ccnc3ccc(OC)cc13)C2 (stereo not given)
IC50 [1]: > 1000 nM | IC50 [2]: > 1000 nM | IC50 (Proline--tRNA ligase): > 2500 nM | IC50 (Lysine--tRNA ligase): > 2500 nM | IC50 [3]: > 1000 nM | IC50 [4]: > 1000 nM | IC50 [5]: > 1000 nM

Cc1ccc(-c2cc3nc4c(c(O)n3n2)CCCC4)cc1
IC50 [1]: > 1000 nM | IC50 [2]: > 1000 nM | IC50 (Proline--tRNA ligase): > 2500 nM | IC50 (Lysine--tRNA ligase): > 2500 nM | IC50 [3]: > 1000 nM | IC50 [4]: > 1000 nM | IC50 [5]: > 1000 nM

Cc1cc(C)c2c(c1)OCN(Cc1ccccc1Cl)C2
IC50 [1]: > 1000 nM | IC50 [2]: > 1000 nM | IC50 (Proline--tRNA ligase): > 2500 nM | IC50 (Lysine--tRNA ligase): > 2500 nM | IC50 [3]: > 1000 nM | IC50 [4]: > 1000 nM | IC50 [5]: > 1000 nM

COc1ccccc1NC1=C(N2CCCCC2)C(=O)c2ccccc2C1=O
IC50 [1]: > 1000 nM | IC50 [2]: > 1000 nM | IC50 (Proline--tRNA ligase): > 2500 nM | IC50 (Lysine--tRNA ligase): > 2500 nM | IC50 [3]: > 1000 nM | IC50 [4]: > 1000 nM | IC50 [5]: > 1000 nM

Cc1cc(NC(=O)C2c3ccccc3C(=O)N(CC(C)C)C2c2cccs2)no1 (stereo not given)
IC50 [1]: > 1000 nM | IC50 [2]: > 1000 nM | IC50 (Proline--tRNA ligase): > 2500 nM | IC50 (Lysine--tRNA ligase): > 2500 nM | IC50 [3]: > 1000 nM | IC50 [4]: > 1000 nM | IC50 [5]: > 1000 nM

Cc1ccc(N2C3c4ccccc4N(S(=O)(=O)c4ccc(C)cc4)C2c2ccccc2N3S(=O)(=O)c2ccc(C)cc2)cc1
IC50 [1]: > 1000 nM | IC50 [2]: > 1000 nM | IC50 (Proline--tRNA ligase): > 2500 nM | IC50 (Lysine--tRNA ligase): > 2500 nM | IC50 [3]: > 1000 nM | IC50 [4]: > 1000 nM | IC50 [5]: > 1000 nM

c1ccc(Cn2c(N=Nc3c(Nc4ccccc4)ccc4ccccc34)nc3ccccc32)cc1
IC50 [1]: > 1000 nM | IC50 [2]: > 1000 nM | IC50 (Proline--tRNA ligase): > 2500 nM | IC50 (Lysine--tRNA ligase): > 2500 nM | IC50 [3]: > 1000 nM | IC50 [4]: > 1000 nM | IC50 [5]: > 1000 nM
